Laboratory results taken from PubChem BioAssay AID1963875 (Molecular Pharmacology Branch, DTP, NCI, 2024).
Several values for one entry are separate records, joined by “and”; a condition that tells them apart may be missing. Identical values can stand only once.

Tested on: KRAS-mutant PDC complex spheroid viability
Assay: Anticancer human tumor 186277-243-T-J2-PDC patient-derived colon adenocarcinoma cell line growth inhibition [KRAS2]
Conditions: for viability, T/C: stronger effect = lower value
Text: Multicellular complex tumor spheroid response to RAS pathway inhibitors in combination with a targeted agents in patient-derived cell lines with oncogenic KRAS variants from multiple cancer types
A high-throughput screen of multi-cell type tumor spheroids was designed to identify active combinations of targeted small molecules and KRAS pathway inhibitors. Complex spheroids include a stromal component modeled by human endothelial cells (HUVEC) and fibroblasts modeled by human mesenchymal stem cells (MSCs). The concentration ranges selected for each drug and investigational agent were based upon clinically achievable concentrations if the clinical Cmax of the agent was known.
Compounds. The drugs and investigational agents: BI-3406 (NSC825286), BAY-293 (NSC824723), batoprotafib (TNO155; NSC825523), sotorasib (AMG 510; NSC818433), MRTX1257 (NSC819558), elimusertib (BAY 1895344; NSC800525), molibresib (GSK525762; NSC774829), temuterkib (LY3214996; NSC803410), venetoclax (NSC766270), alisertib (NSC759677), olaparib (NSC753686), talazoparib (NSC767125), erdafitinib (NSC781556), ipatasertib (NSC767898), cabozantinib (NSC761068), nintedanib (NSC756659), abemaciclib (NSC768073), docetaxel (NSC628503), trametinib (NSC758246), and sapanisertib (NSC764658) were obtained from the National Cancer Institute (NCI) Developmental Therapeutics Program Chemical Repository. The FDA-approved anticancer drug set is available from the Developmental Therapeutics Program. […] The stock solutions were prepared in dimethyl sulfoxide (DMSO, Sigma-Aldrich, St. Louis, MO, cat. D2650) at 800-fold the tested concentration and stored at -70 degrees C prior to their use. All drugs and investigational agents were tested over a range starting from a high concentration at or near the clinical Cmax and decreasing in half-log increments. If the clinical Cmax for an agent had not been determined, the highest concentration tested was 10 microM.
Cell Culture. All cells were maintained in an incubator at 37 degrees C and 5% CO2 with 95% humidity. The PDC lines were cultured according to standard operating procedures established by the NCI PDMR (https://pdmr.cancer.gov/sops/default.htm). Briefly, all PDCs were thawed and cultured in Matrigel-coated flasks prepared with a working solution of 1X Ham's F-12 nutrient mix, without supplementation (Invitrogen, Waltham, MA, cat. 11765054), 100 U/mL penicillin-streptomycin (Invitrogen, cat. 15140122), and 2.5% Matrigel (Corning Inc., Corning, NY, cat. 354248) for the first three passages. All PDCs were cultured in complete DMEM/F-12 media containing advanced DMEM/F-12 (Invitrogen, cat. 12634028), 4.9% defined fetal bovine serum, heat inactivated (HyClone Laboratories Inc., Logan, UT, cat. SH30070.03HI), 389 ng/mL hydrocortisone (Sigma-Aldrich, cat. H4001), 9.7 ng/mL human EGF recombinant protein (Invitrogen, cat. PHG0313), 23.4 microg/mL adenine (Sigma-Aldrich, cat. A2786), 97.3 U/mL penicillin-streptomycin (Invitrogen, cat. 15140122), 1.9 mM L-glutamine (Invitrogen, cat. 25030081), and 9.7 microM Y-27632 dihydrochloride (Tocris Bioscience, Bristol, United Kingdom, cat. 1254). The PDCs were cultured in complete DMEM/F12 media without 9.7 microM Y-27632 dihydrochloride for at least two passages prior to the screen. The established cell line HOP-62 was cultured in RPMI 1640 medium, HEPES (Invitrogen, cat. 22400105) with 10% defined fetal bovine serum (HyClone Laboratories Inc., cat. SH30070.03) and 2 mM L-glutamine (Invitrogen, cat. 25030081). The pooled donor HUVEC were cultured in endothelial cell growth medium 2 (PromoCell, Heidelberg, Germany, cat. C-22011) and the hMSC were cultured in mesenchymal stem cell growth medium 2 (PromoCell, cat. C-28009). For all experiments, HUVEC and hMSC were used at passages </=5, while the malignant cell lines were used at passages </=15. […]

[1] = curve of first compound, second compound 0.0316 µM
[2] = curve of first compound, second compound 0.1 µM
[3] = curve of first compound, second compound 0.316 µM
[4] = curve of first compound, second compound 1 µM
[5] = curve of first compound, second compound 3.16 µM
[6] = second compound 0.0316 µM, first compound 0.0316 µM
[7] = second compound 0.0316 µM, first compound 0.1 µM
[8] = second compound 0.0316 µM, first compound 0.316 µM
[9] = second compound 0.0316 µM, first compound 1 µM
[10] = second compound 0.0316 µM, first compound 3.16 µM
[11] = second compound 0.0316 µM, first compound 10 µM
[12] = second compound 0.1 µM, first compound 0.0316 µM
[13] = second compound 0.1 µM, first compound 0.1 µM
[14] = second compound 0.1 µM, first compound 0.316 µM
[15] = second compound 0.1 µM, first compound 1 µM
[16] = second compound 0.1 µM, first compound 3.16 µM
[17] = second compound 0.1 µM, first compound 10 µM
[18] = second compound 0.316 µM, first compound 0.0316 µM
[19] = second compound 0.316 µM, first compound 0.1 µM
[20] = second compound 0.316 µM, first compound 0.316 µM
[21] = second compound 0.316 µM, first compound 1 µM
[22] = second compound 0.316 µM, first compound 3.16 µM
[23] = second compound 0.316 µM, first compound 10 µM
[24] = second compound 1 µM, first compound 0.0316 µM
[25] = second compound 1 µM, first compound 0.1 µM
[26] = second compound 1 µM, first compound 0.316 µM
[27] = second compound 1 µM, first compound 1 µM
[28] = second compound 1 µM, first compound 3.16 µM
[29] = second compound 1 µM, first compound 10 µM
[30] = second compound 3.16 µM, first compound 0.0316 µM
[31] = second compound 3.16 µM, first compound 0.1 µM
[32] = second compound 3.16 µM, first compound 0.316 µM
[33] = second compound 3.16 µM, first compound 1 µM
[34] = second compound 3.16 µM, first compound 3.16 µM
[35] = second compound 3.16 µM, first compound 10 µM
[36] = curve of first compound, second compound 10 µM
[37] = second compound 10 µM, first compound 0.0316 µM
[38] = second compound 10 µM, first compound 0.1 µM
[39] = second compound 10 µM, first compound 0.316 µM
[40] = second compound 10 µM, first compound 1 µM
[41] = second compound 10 µM, first compound 3.16 µM
[42] = second compound 10 µM, first compound 10 µM
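Wherever viability, T/C is given: viability read after seven days of compound exposure; 100% = DMSO vehicle-treated spheroids so lower means less viable.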

CCNC(=O)CC1N=C(c2ccc(Cl)cc2)c2cc(OC)ccc2-n2c(C)nnc21 (stereo unspecified) + C=CC(=O)N1CCN(c2nc(OCC3CCCN3C)nc3c2CCN(c2cccc4cccc(C)c24)C3)CC1CC#N
IC50 [1]: > 10 µM | IC50 [2]: > 10 µM | IC50 [3]: > 10 µM | IC50 [4]: 8.18 µM | IC50 [5]: < 0.0316 µM | viability, T/C [6]: 100% | viability, T/C [7]: 102% | viability, T/C [8]: 118% | viability, T/C [9]: 171% | viability, T/C [10]: 151% | viability, T/C [11]: 118% | viability, T/C [12]: 106% | viability, T/C [13]: 99% | viability, T/C [14]: 113% | viability, T/C [15]: 169% | viability, T/C [16]: 154% | viability, T/C [17]: 116% | viability, T/C [18]: 99.9% | viability, T/C [19]: 96.9% | viability, T/C [20]: 125% | viability, T/C [21]: 149% | viability, T/C [22]: 130% | viability, T/C [23]: 102% | viability, T/C [24]: 97% | viability, T/C [25]: 107% | viability, T/C [26]: 138% | viability, T/C [27]: 138% | viability, T/C [28]: 93.6% | viability, T/C [29]: 40.8% | viability, T/C [30]: 1.32% | viability, T/C [31]: 10.2% | viability, T/C [32]: 1.62% | viability, T/C [33]: 1.12% | viability, T/C [34]: 0.2% | viability, T/C [35]: 0.24%

O=C(c1cc(Cc2n[nH]c(=O)c3ccccc23)ccc1F)N1CCN(C(=O)C2CC2)CC1 + CNCc1ccccc1-c1csc(C(C)Nc2nc(C)nc3cc(OC)c(OC)cc23)c1
IC50 [2]: 6.45 µM | IC50 [3]: 6.16 µM | IC50 [4]: 5.69 µM | IC50 [5]: 0.639 µM | IC50 [36]: < 0.0316 µM | viability, T/C [12]: 110% | viability, T/C [13]: 101% | viability, T/C [14]: 95.6% | viability, T/C [15]: 114% | viability, T/C [16]: 78.6% | viability, T/C [17]: 32.4% | viability, T/C [18]: 107% | viability, T/C [19]: 102% | viability, T/C [20]: 111% | viability, T/C [21]: 106% | viability, T/C [22]: 73.8% | viability, T/C [23]: 32.7% | viability, T/C [24]: 104% | viability, T/C [25]: 97.2% | viability, T/C [26]: 108% | viability, T/C [27]: 104% | viability, T/C [28]: 66.9% | viability, T/C [29]: 33.8% | viability, T/C [30]: 94.8% | viability, T/C [31]: 107% | viability, T/C [32]: 94.1% | viability, T/C [33]: 16.2% | viability, T/C [34]: 45.6% | viability, T/C [35]: 3.95% | viability, T/C [37]: 0.19% | viability, T/C [38]: 0.21% | viability, T/C [39]: 0.19% | viability, T/C [40]: 0.14% | viability, T/C [41]: 0.14% | viability, T/C [42]: 0.19%

CC1OCC2(CCN(c3cnc(Sc4ccnc(N)c4Cl)c(N)n3)CC2)C1N (stereo unspecified) + C=CC(=O)N1CCN(c2nc(OCC3CCCN3C)nc3c2CCN(c2cccc4cccc(C)c24)C3)CC1CC#N
IC50 [1]: > 10 µM | IC50 [2]: > 10 µM | IC50 [3]: > 10 µM | IC50 [4]: > 10 µM | IC50 [5]: < 0.0316 µM | viability, T/C [6]: 111% | viability, T/C [7]: 101% | viability, T/C [8]: 108% | viability, T/C [9]: 101% | viability, T/C [10]: 102% | viability, T/C [11]: 116% | viability, T/C [12]: 108% | viability, T/C [13]: 112% | viability, T/C [14]: 110% | viability, T/C [15]: 103% | viability, T/C [16]: 104% | viability, T/C [17]: 110% | viability, T/C [18]: 113% | viability, T/C [19]: 111% | viability, T/C [20]: 102% | viability, T/C [21]: 110% | viability, T/C [22]: 102% | viability, T/C [23]: 116% | viability, T/C [24]: 102% | viability, T/C [25]: 99.9% | viability, T/C [26]: 101% | viability, T/C [27]: 107% | viability, T/C [28]: 118% | viability, T/C [29]: 88.5% | viability, T/C [30]: 1.51% | viability, T/C [31]: 10% | viability, T/C [32]: 0.47% | viability, T/C [33]: 0.22% | viability, T/C [34]: 0.3% | viability, T/C [35]: 1.11%

CN(C)C/C=C/C(=O)Nc1cc2c(Nc3ccc(F)c(Cl)c3)ncnc2cc1O[C@H]1CCOC1
viability, T/C (compound 0.000316 µM): 101% [middle of 5 runs] | viability, T/C (compound 0.00316 µM): 101% [middle of 5 runs] | viability, T/C (compound 0.01 µM): 108% [middle of 5 runs] | viability, T/C (compound 0.0316 µM): 120% (3×) and 114% and 105% | viability, T/C (compound 0.1 µM): 111% [middle of 5 runs] | IC50 (curve of compound): > 0.1 µM

COc1cc2nccc(Oc3ccc(NC(=O)C4(C(=O)Nc5ccc(F)cc5)CC4)cc3)c2cc1OC + CNCc1ccccc1-c1csc(C(C)Nc2nc(C)nc3cc(OC)c(OC)cc23)c1
IC50 [2]: 1.85 µM | IC50 [3]: 1.91 µM | IC50 [4]: 1.68 µM | IC50 [5]: < 0.0316 µM | IC50 [36]: < 0.0316 µM | viability, T/C [12]: 112% | viability, T/C [13]: 106% | viability, T/C [14]: 115% | viability, T/C [15]: 93.3% | viability, T/C [16]: 11.4% | viability, T/C [17]: 12.4% | viability, T/C [18]: 113% | viability, T/C [19]: 104% | viability, T/C [20]: 113% | viability, T/C [21]: 100% | viability, T/C [22]: 10.8% | viability, T/C [23]: 4.47% | viability, T/C [24]: 102% | viability, T/C [25]: 112% | viability, T/C [26]: 121% | viability, T/C [27]: 85.7% | viability, T/C [28]: 6.86% | viability, T/C [29]: 2.01% | viability, T/C [30]: 45.5% | viability, T/C [31]: 48% | viability, T/C [32]: 26.6% | viability, T/C [33]: 0.18% | viability, T/C [34]: 0.06% | viability, T/C [35]: 0.12% | viability, T/C [37]: 0.16% | viability, T/C [38]: 0.15% | viability, T/C [39]: 0.13% | viability, T/C [40]: 0.13% | viability, T/C [41]: 0.13% | viability, T/C [42]: 0.21%
